Laboratory results from PMC6225122 (2018).
In brackets after ≈: the same amount, converted by molar mass.

Columns and labels:
[1] = tested on: aptamer 28 (DNA, aptamer) ACGCATAGGATGCAACAACGCGAATGCCACCAATTCGTGCTTGTCGTGTCCTATGCGT; experiment: circular dichroism; conditions: binding buffer: 8 g/L NaCl, 0.2 g/L KCl, 0.1 g/L MgCl2·6H2O, 0.1 g/L CaCl2; 1 μM aptamer, 10 μM CBL, room temperature, 30 min
[2] = tested on: aptamer 47 (DNA, aptamer) ACGCATAGGTCATGCCAAGCTGTACACCGTCCTGGCCTGGTTGGGATGTCCTATGCGT; experiment: circular dichroism; conditions: binding buffer: 8 g/L NaCl, 0.2 g/L KCl, 0.1 g/L MgCl2·6H2O, 0.1 g/L CaCl2; 1 μM aptamer, 10 μM CBL, room temperature, 30 min
[3] = tested on: aptamer 64 (DNA, aptamer) ACGCATAGGTACACCACATCGGATCGTAATGCGTATGTGACTCAGTGTGCCTATGCGT; experiment: circular dichroism; conditions: binding buffer: 8 g/L NaCl, 0.2 g/L KCl, 0.1 g/L MgCl2·6H2O, 0.1 g/L CaCl2; 1 μM aptamer, 10 μM CBL, room temperature, 30 min
[4] = tested on: aptamer 78 (DNA, aptamer) ACGCATAGGGTACGCCACAGATCGACCTCTGGTTGGTCCTGTTGTGTGGCCTATGCGT; experiment: circular dichroism; conditions: binding buffer: 8 g/L NaCl, 0.2 g/L KCl, 0.1 g/L MgCl2·6H2O, 0.1 g/L CaCl2; 1 μM aptamer, 10 μM CBL, room temperature, 30 min
[5] = tested on: aptamer 132 (DNA, aptamer) ACGCATAGGGACCATGCGCAGTGAACTTGGTTCTTTGTGCTCATGTGTGCCTATGCGT; experiment: circular dichroism; conditions: binding buffer: 8 g/L NaCl, 0.2 g/L KCl, 0.1 g/L MgCl2·6H2O, 0.1 g/L CaCl2; 1 μM aptamer, 10 μM CBL, room temperature, 30 min
[6] = tested on: aptamer 154 (DNA, aptamer) ACGCATAGGGCATCACACATGTCCTTGCCATTGCTGACTTGTTTGGTGTCCTATGCGT; experiment: circular dichroism; conditions: binding buffer: 8 g/L NaCl, 0.2 g/L KCl, 0.1 g/L MgCl2·6H2O, 0.1 g/L CaCl2; 1 μM aptamer, 10 μM CBL, room temperature, 30 min
[7] = tested on: aptamer 28 (DNA, aptamer) ACGCATAGGATGCAACAACGCGAATGCCACCAATTCGTGCTTGTCGTGTCCTATGCGT; experiment: AuNP colorimetric titration (A520); conditions: 0.9 M NaCl (10 µL) added after binding; aptamer 0-1600 nM titrated against 1 μg/mL CBL, water, 30 min, room temperature
[8] = tested on: aptamer 47 (DNA, aptamer) ACGCATAGGTCATGCCAAGCTGTACACCGTCCTGGCCTGGTTGGGATGTCCTATGCGT; experiment: AuNP colorimetric titration (A520); conditions: 0.9 M NaCl (10 µL) added after binding; aptamer 0-1600 nM titrated against 1 μg/mL CBL, water, 30 min, room temperature
[9] = tested on: aptamer 64 (DNA, aptamer) ACGCATAGGTACACCACATCGGATCGTAATGCGTATGTGACTCAGTGTGCCTATGCGT; experiment: AuNP colorimetric titration (A520); conditions: 0.9 M NaCl (10 µL) added after binding; aptamer 0-1600 nM titrated against 1 μg/mL CBL, water, 30 min, room temperature
[10] = tested on: aptamer 78 (DNA, aptamer) ACGCATAGGGTACGCCACAGATCGACCTCTGGTTGGTCCTGTTGTGTGGCCTATGCGT; experiment: AuNP colorimetric titration (A520); conditions: 0.9 M NaCl (10 µL) added after binding; aptamer 0-1600 nM titrated against 1 μg/mL CBL, water, 30 min, room temperature
[11] = tested on: aptamer 132 (DNA, aptamer) ACGCATAGGGACCATGCGCAGTGAACTTGGTTCTTTGTGCTCATGTGTGCCTATGCGT; experiment: AuNP colorimetric titration (A520); conditions: 0.9 M NaCl (10 µL) added after binding; aptamer 0-1600 nM titrated against 1 μg/mL CBL, water, 30 min, room temperature
[12] = tested on: aptamer 154 (DNA, aptamer) ACGCATAGGGCATCACACATGTCCTTGCCATTGCTGACTTGTTTGGTGTCCTATGCGT; experiment: AuNP colorimetric titration (A520); conditions: 0.9 M NaCl (10 µL) added after binding; aptamer 0-1600 nM titrated against 1 μg/mL CBL, water, 30 min, room temperature
[13] = tested on: 5′-biotin aptamer 47 (DNA, aptamer) ACGCATAGGTCATGCCAAGCTGTACACCGTCCTGGCCTGGTTGGGATGTCCTATGCGT; experiment: indirect competitive enzyme-linked aptamer assay (ic-ELAA); conditions: binding buffer: 8 g/L NaCl, 0.2 g/L KCl, 0.1 g/L MgCl2·6H2O, 0.1 g/L CaCl2; competition with coated CBL-BSA; 1 μM aptamer (50 μL), 37 °C, 1 h
[14] = tested on: aptamer 28 (DNA, aptamer) ACGCATAGGATGCAACAACGCGAATGCCACCAATTCGTGCTTGTCGTGTCCTATGCGT; experiment: AuNP colorimetric specificity assay (A620/A520); conditions: 0.9 M NaCl added after binding; 1 μg/mL compound, 0.4 μM aptamer, room temperature, 30 min
[15] = tested on: aptamer 47 (DNA, aptamer) ACGCATAGGTCATGCCAAGCTGTACACCGTCCTGGCCTGGTTGGGATGTCCTATGCGT; experiment: AuNP colorimetric specificity assay (A620/A520); conditions: 0.9 M NaCl added after binding; 1 μg/mL compound, 0.4 μM aptamer, room temperature, 30 min
[16] = tested on: aptamer 64 (DNA, aptamer) ACGCATAGGTACACCACATCGGATCGTAATGCGTATGTGACTCAGTGTGCCTATGCGT; experiment: AuNP colorimetric specificity assay (A620/A520); conditions: 0.9 M NaCl added after binding; 1 μg/mL compound, 0.4 μM aptamer, room temperature, 30 min
[17] = tested on: aptamer 78 (DNA, aptamer) ACGCATAGGGTACGCCACAGATCGACCTCTGGTTGGTCCTGTTGTGTGGCCTATGCGT; experiment: AuNP colorimetric specificity assay (A620/A520); conditions: 0.9 M NaCl added after binding; 1 μg/mL compound, 0.4 μM aptamer, room temperature, 30 min
[18] = tested on: aptamer 132 (DNA, aptamer) ACGCATAGGGACCATGCGCAGTGAACTTGGTTCTTTGTGCTCATGTGTGCCTATGCGT; experiment: AuNP colorimetric specificity assay (A620/A520); conditions: 0.9 M NaCl added after binding; 1 μg/mL compound, 0.4 μM aptamer, room temperature, 30 min
[19] = tested on: aptamer 154 (DNA, aptamer) ACGCATAGGGCATCACACATGTCCTTGCCATTGCTGACTTGTTTGGTGTCCTATGCGT; experiment: AuNP colorimetric specificity assay (A620/A520); conditions: 0.9 M NaCl added after binding; 1 μg/mL compound, 0.4 μM aptamer, room temperature, 30 min

binding [1] | binding [2] | binding [3] | binding [4] | binding [5] | binding [6] | Kd [7] [µM] | Kd [8] [µM] | Kd [9] [µM] | Kd [10] [µM] | Kd [11] [µM] | Kd [12] [µM] | IC50 [13] [ng/mL] | binding [14] | binding [15] | binding [16] | binding [17] | binding [18] | binding [19] | Structure (SMILES)
yes | yes | yes | yes | yes | yes | 0.321 ± 0.1045 | 0.04217 ± 0.00898 | 0.1233 ± 0.01428 | 0.2011 ± 0.04242 | 0.2216 ± 0.04187 | 0.2688 ± 0.04043 | 5.44 ± 0.01 (≈ 0.0196 µM) |  |  |  |  |  |  | CC(C)(C)NCC(O)c1cc(Cl)c(N)c(Cl)c1 (stereo not shown)
 |  |  |  |  |  |  |  |  |  |  |  |  | no | no | no | no | no | no | CC(C)(C)NCC(O)c1ccc(O)c(CO)c1 (stereo not shown)
 |  |  |  |  |  |  |  |  |  |  |  |  | no | no | no | no | no | no | CC(CCc1ccc(O)cc1)NCC(O)c1ccc(O)cc1 (stereo not shown)
 |  |  |  |  |  |  |  |  |  |  |  |  | no | no | no | no | no | no | CC(C)(C)NCC(O)c1cc(O)cc(O)c1 (stereo not shown)
